According to patent publication US20260207606A1, “DOSING SCHEDULE OF A SOLID DISPERSION OF A HER2 INHIBITOR” (Boehringer Ingelheim International GmbH, priority 2022, published 2026):

Experiments:
[1] = test system: PC-9 YVMA xenograft; assay: Preclinical PK/TGI model for human dose prediction; set-up: species or system mice; settings: PK/TGI model with predicted human PK parameters
Protocol: This preclinical mathematical model was built with input data from internal in vitro and in vivo data from efficacy experiments in PC-9 YVMA xenograft. Plasma exposure and tumor growth inhibition data from mice were used to train the model. The predicted human PK parameters were used to predict the human plasma profile in the preclinical PK/TGI model. In this setting the PK/TGI model was used to identify the required dose in human necessary to achieve a TGI >100%. This was predicted at 40 mg BID.

[2] = test system: NSCLC; assay: Phase Ia dose escalation trial: tumour response according to RECIST v1.1 in NSCLC patients; format: in vivo, human; settings: regardless of confirmation, data lock 16 Mar. 2023
Source text: Tumour assessments should include computed tomography (CT) scans of the chest, abdomen/pelvis (or PET/CT) and a brain MRI at screening. If clinically indicated, imaging of any other known or suspected sites of disease (e.g. bone) using an appropriate method (CT scan, MRI, PET/CT, or bone scan) should be performed. The same radiographic procedure must be used throughout the trial. Assessments will be performed by the investigator at screening (≤28 days prior to initiation of treatment), every 2 cycles (6 weeks ±5 days), at the end-of-treatment (EOT) visit (if not performed within the previous 3 weeks), and at the discretion of the investigator, and copies may be collected by the sponsor or designee. Wherever possible the assessment schedule should not be changed, but if there is an interruption or delay to treatment, alteration of the tumour assessment schedule to align with clinical assessments is allowed. Additional unscheduled tumour assessments may be performed at the discretion of the investigator. If the patient stops trial medication for a reason other than progression, tumour assessment according to RECIST v1.1 continues until progression (or until one of the following occurs; death, lost to follow-up, end of the trial).
Tumour response is evaluated according to RECIST Version 1.1 (Eisenhauer E A, Therasse P, Bogaerts J, Schwartz L H, Sargent D, Ford R, et al. New response evaluation criteria in solid tumours: revised RECIST guideline (version 1.1). Eur J Cancer. 2009; 45:228-247). RECIST 1.1 is used for a) whole-body assessment (classical RECIST 1.1) and b) the tumour assessment of non-CNS areas. The assessment according to classical RECIST 1.1 by the investigator and/or the local radiologist is the basis for continuation or discontinuation of the trial in an individual patient (in addition to safety). No whole-body RECIST assessment is performed in the dose escalation part.

## C=CC(=O)NC1CCN(c2ncc3ncnc(Nc4ccc(Oc5ccc6c(c5)ncn6C)c(C)c4)c3n2)CC1 [compound (1), N-{1-[8-({3-methyl-4-[(1-methyl-1H-1,3-benzodiazol-5-yl)oxy]phenyl}amino)-[1,3]diazino[5,4-d]pyrimidin-2-yl]piperidin-4-yl}prop-2-enamide]
[1]
  predicted dose in human necessary to achieve a TGI >100%: 40 mg BID
[2]; 15 mg BID, 1 NSCLC patients
  Best overall response (RECIST 1.1): Complete response, %: 0.0%
  Best overall response (RECIST 1.1): Non-CR/Non-PD, %: 0.0%
  Best overall response (RECIST 1.1): Not evaluable, %: 0.0%
  Best overall response (RECIST 1.1): Partial response, %: 0.0%
  Best overall response (RECIST 1.1): Progressive disease, %: 0.0%
  Best overall response (RECIST 1.1): Stable disease, %: 100.0%
[2]; 30 mg BID, 2 NSCLC patients
  Best overall response (RECIST 1.1): Complete response, %: 0.0%
  Best overall response (RECIST 1.1): Non-CR/Non-PD, %: 0.0%
  Best overall response (RECIST 1.1): Not evaluable, %: 0.0%
  Best overall response (RECIST 1.1): Partial response, %: 50.0%
  Best overall response (RECIST 1.1): Progressive disease, %: 0.0%
  Best overall response (RECIST 1.1): Stable disease, %: 50.0%
[2]; 60 mg BID, 3 NSCLC patients
  Best overall response (RECIST 1.1): Complete response, %: 0.0%
  Best overall response (RECIST 1.1): Non-CR/Non-PD, %: 0.0%
  Best overall response (RECIST 1.1): Not evaluable, %: 0.0%
  Best overall response (RECIST 1.1): Partial response, %: 66.7%
  Best overall response (RECIST 1.1): Progressive disease, %: 0.0%
  Best overall response (RECIST 1.1): Stable disease, %: 33.3%
[2]; 60 mg QD, 2 NSCLC patients
  Best overall response (RECIST 1.1): Complete response, %: 0.0%
  Best overall response (RECIST 1.1): Non-CR/Non-PD, %: 0.0%
  Best overall response (RECIST 1.1): Not evaluable, %: 0.0%
  Best overall response (RECIST 1.1): Partial response, %: 50.0%
  Best overall response (RECIST 1.1): Progressive disease, %: 0.0%
  Best overall response (RECIST 1.1): Stable disease, %: 50.0%
[2]; 100 mg BID, 3 NSCLC patients
  Best overall response (RECIST 1.1): Complete response, %: 0.0%
  Best overall response (RECIST 1.1): Non-CR/Non-PD, %: 0.0%
  Best overall response (RECIST 1.1): Not evaluable, %: 0.0%
  Best overall response (RECIST 1.1): Partial response, %: 33.0%
  Best overall response (RECIST 1.1): Progressive disease, %: 0.0%
  Best overall response (RECIST 1.1): Stable disease, %: 66.7%
[2]; 120 mg QD, 4 NSCLC patients
  Best overall response (RECIST 1.1): Complete response, %: 0.0%
  Best overall response (RECIST 1.1): Non-CR/Non-PD, %: 0.0%
  Best overall response (RECIST 1.1): Not evaluable, %: 0.0%
  Best overall response (RECIST 1.1): Partial response, %: 50.0%
  Best overall response (RECIST 1.1): Progressive disease, %: 25.0%
  Best overall response (RECIST 1.1): Stable disease, %: 25.0%
[2]; 150 mg BID, 2 NSCLC patients
  Best overall response (RECIST 1.1): Complete response, %: 0.0%
  Best overall response (RECIST 1.1): Non-CR/Non-PD, %: 0.0%
  Best overall response (RECIST 1.1): Not evaluable, %: 0.0%
  Best overall response (RECIST 1.1): Partial response, %: 50.0%
  Best overall response (RECIST 1.1): Progressive disease, %: 0.0%
  Best overall response (RECIST 1.1): Stable disease, %: 50.0%
[2]; 180 mg QD, 5 NSCLC patients
  Best overall response (RECIST 1.1): Complete response, %: 0.0%
  Best overall response (RECIST 1.1): Non-CR/Non-PD, %: 0.0%
  Best overall response (RECIST 1.1): Not evaluable, %: 20.0%
